What was measured:
[1] = system: Aerobes; experiment: Antimicrobial Effectiveness Testing (USP 24) of preserved cosmetic formulations, count of aerobes; assay type: cell-based; conditions: for Aerobes, Initial: 0 hours
Description: (§1) Procedure to Evaluate the Efficacv of the Preservative System
(§2) This assay consists on the contamination of the formulations to be protected with a mixed inoculum of 10^8 cfu/ml concentration, in each of the micro-organisms, and see the variation of the viable cells in time. This mixed inoculum is composed of the following micro-organisms:
(§3) The cosmetic composition which is the subject of the investigation is divided into containers with 50 g of product for each flask. Each container is inoculated with 0.5 ml of the inoculum (10^8 cfu/ml). The target concentration is 10^6 cfu/mL, approximately. All the containers are kept at a temperature between 20-25° C. and are protected against light.
(§4) The level of the microbial contamination is determined at 0 hours and after 7 days, 14 days and 28 days. The number of colonies is determined by dilution in buffer peptone with the appropriate neutraliser agent of the preservative. The culture media used for counting the micro-organisms were: Soya triptone agar (35-37° C., 48 hours) for the determination of bacteria; and Sabouraud agar with chloramphenicol for fungi and yeast (25° C., 3-5 days).
(§5) According to Antimicrobial Effectiveness Testing USP 24th Edition, 1999 (pp. 1809-1811), an antimicrobial preservative is considered to be effective in topically used products made with aqueous bases or vehicles, non-sterile nasal products and emulsions, including those applied to mucous membranes, if: • not less than 2,0 logarithm reduction from the initial calculated bacteria's count at 14 days is reached and no increase from the 14 days' count is detected after 28 days; and • no increase from the initial calculated count of yeast and moulds is observed.

[2] = system: Fungi; experiment: Antimicrobial Effectiveness Testing (USP 24) of preserved cosmetic formulations, count of fungi; assay type: cell-based, Aspergillus niger ATCC 16404; conditions: for Fungi, Initial: 0 hours
Description: as §1, §2, §3, §4, §5

[3] = system: Yeast; experiment: Antimicrobial Effectiveness Testing (USP 24) of preserved cosmetic formulations, count of yeast; assay type: cell-based, Candida albicans ATCC 10231; conditions: for Yeast, Initial: 0 hours
Description: as §1, §2, §3, §4, §5

[4] = Example 1, oil in water emulsion with non-ionic surfactant
[5] = Example 2, oil in water emulsion with ionic emulsifier
[6] = Example 3, water in oil emulsion with non-ionic emulsifier

Structure (SMILES) | Aerobes, Initial [1, 4] | Aerobes, 7 days [1, 4] | Aerobes, 14 days [1, 4] | Aerobes, Initial [1, 5] | Aerobes, 7 days [1, 5] | Aerobes, 14 days [1, 5] | Aerobes, Initial [1, 6] | Aerobes, 7 days [1, 6] | Aerobes, 14 days [1, 6] | Fungi, Initial [2, 4] | Fungi, 7 days [2, 4] | Fungi, 14 days [2, 4] | Fungi, Initial [2, 5] | Fungi, 7 days [2, 5] | Fungi, 14 days [2, 5] | Fungi, Initial [2, 6] | Fungi, 7 days [2, 6] | Fungi, 14 days [2, 6] | Yeast, Initial [3, 4] | Yeast, 7 days [3, 4] | also measured
CC1(C)C(=O)N(CO)C(=O)N1CO [compound 4] | 1.5 · 10^6 | 4.7 · 10^3 | 8.5 · 10^2 | 5.2 · 10^6 | 4.7 · 10^3 | 8.7 · 10^2 | 5.6 · 10^6 | 4.7 · 10^3 | 4.3 · 10^2 | 1.6 · 10^5 | 3.2 · 10^3 | <9.9 · 10^1 | 1.4 · 10^5 | 6.2 · 10^3 | 2.7 · 10^2 | 6.4 · 10^4 | 6.2 · 10^3 | <9.9 · 10^1 | 5.6 · 10^4 | 3.1 · 10^2 | Yeast, 14 days [3, 4]: <9.9 · 10^1; Yeast, Initial [3, 5]: 1.8 · 10^4; Yeast, 7 days [3, 5]: 2.8 · 10^2; Yeast, 14 days [3, 5]: <9.9 · 10^1; Yeast, Initial [3, 6]: 4.8 · 10^4; Yeast, 7 days [3, 6]: 2.8 · 10^2; Yeast, 14 days [3, 6]: <9.9 · 10^1
OCCOc1ccccc1 [compound 5] | 2.3 · 10^6 | 1.8 · 10^3 | 6.2 · 10^2 | 2.7 · 10^6 | 1.8 · 10^4 | 1.8 · 10^3 | 4.8 · 10^6 | 3.9 · 10^3 | 1.9 · 10^3 | 1.7 · 10^5 | 1.3 · 10^3 | <9.9 · 10^1 | 1.2 · 10^5 | 5.5 · 10^3 | 3.4 · 10^2 | 4.2 · 10^4 | 5.5 · 10^3 | <9.9 · 10^1 | 3.4 · 10^4 | 1.6 · 10^2 | Yeast, 14 days [3, 4]: <9.9 · 10^1; Yeast, Initial [3, 5]: 2.3 · 10^4; Yeast, 7 days [3, 5]: 5.3 · 10^2; Yeast, 14 days [3, 5]: <9.9 · 10^1; Yeast, Initial [3, 6]: 5.3 · 10^4; Yeast, 7 days [3, 6]: 5.3 · 10^2; Yeast, 14 days [3, 6]: <9.9 · 10^1
CCCCCCCCCCCC(=O)NC(CCCNC(=N)N)C(=O)OCC.Cl (stereo not drawn) [compound 1] | 1.1 · 10^6 | 3.1 · 10^3 | 3.3 · 10^2 | 2.7 · 10^6 | 1.6 · 10^4 | 6.5 · 10^2 | 6.2 · 10^6 | 1.8 · 10^3 | <9.9 · 10^1 | 1.7 · 10^5 | 8.9 · 10^2 | <9.9 · 10^1 | 1.4 · 10^5 | 7.2 · 10^3 | 2.8 · 10^2 | 1.0 · 10^5 | <9.9 · 10^1 | <9.9 · 10^1 | 5.6 · 10^4 | 9.5 · 10^2 | Yeast, 14 days [3, 4]: 4.0 · 10^2; Yeast, Initial [3, 5]: 3.6 · 10^4; Yeast, 7 days [3, 5]: 1.0 · 10^2; Yeast, 14 days [3, 5]: 1.0 · 10^2; Yeast, Initial [3, 6]: 7.0 · 10^4; Yeast, 7 days [3, 6]: <9.9 · 10^1; Yeast, 14 days [3, 6]: <9.9 · 10^1
ClC=CC[N+]12CN3CN(CN(C3)C1)C2.[Cl-] [compound 8] | 4.8 · 10^6 | 7.2 · 10^3 | 5.3 · 10^2 | 4.6 · 10^6 | 7.2 · 10^3 | 9.8 · 10^2 | 4.2 · 10^6 | 2.7 · 10^3 | 9.4 · 10^2 | 1.8 · 10^5 | 1.3 · 10^3 | <9.9 · 10^1 | 1.8 · 10^5 | 5.3 · 10^3 | <9.9 · 10^1 | 3.8 · 10^4 | 1.3 · 10^3 | <9.9 · 10^1 | 3.4 · 10^4 | 1.6 · 10^2 | Yeast, 14 days [3, 4]: <9.9 · 10^1; Yeast, Initial [3, 5]: 1.9 · 10^4; Yeast, 7 days [3, 5]: 5.9 · 10^2; Yeast, 14 days [3, 5]: <9.9 · 10^1; Yeast, Initial [3, 6]: 5.9 · 10^4; Yeast, 7 days [3, 6]: 5.9 · 10^2; Yeast, 14 days [3, 6]: <9.9 · 10^1
O=[N+]([O-])C(Br)(CO)CO [compound 2] | 1.2 · 10^6 | 2.1 · 10^3 | 7.9 · 10^2 | 4.5 · 10^6 | 2.1 · 10^4 | 3.8 · 10^3 | 3.3 · 10^6 | 5.7 · 10^3 | 2.8 · 10^3 | 1.5 · 10^5 | 1.2 · 10^3 | <9.9 · 10^1 | 1.5 · 10^5 | 8.5 · 10^3 | 1.1 · 10^2 | 3.5 · 10^4 | 8.5 · 10^3 | <9.9 · 10^1 | 3.4 · 10^4 | 1.7 · 10^2 | Yeast, 14 days [3, 4]: <9.9 · 10^1; Yeast, Initial [3, 5]: 2.9 · 10^4; Yeast, 7 days [3, 5]: 8.9 · 10^2; Yeast, 14 days [3, 5]: 4.0 · 10^2; Yeast, Initial [3, 6]: 5.9 · 10^4; Yeast, 7 days [3, 6]: 8.9 · 10^2; Yeast, 14 days [3, 6]: 4.0 · 10^2
